{
  "source": "patent US20220007644A1",
  "about": "“COMPOSITIONS COMPRISING PYRIDINE CARBOXYLATE HERBICIDES WITH PHOTOSYSTEM II AND OPTIONAL HPPD INHIBITOR HERBICIDES” (Corteva Agriscience LLC, priority 2018, published 2022)",
  "type_in_all_cases": "in vivo",
  "key": {"[1]": {"tested_on": "HELAN, Helianthus annuus (common sunflower)", "assay": "Greenhouse postemergence herbicidal effect (visual injury, 20-22 d)", "conditions": "Compound A 10 g/ha, without cloquintocet-mexyl safener"}, "[2]": {"tested_on": "CYPES, Cyperus esculentus (nutsedge)", "assay": "Greenhouse postemergence herbicidal effect (visual injury, 20-22 d)", "conditions": "Compound A 10 g/ha"}, "[3]": {"tested_on": "AMARE, Amaranthus retroflexus (pigweed)", "assay": "Greenhouse postemergence herbicidal effect (visual injury, 20-22 d)", "procedure,_shortened": "(§1)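 Plants at 2nd–3rd true leaf stage were sprayed postemergence with pyridine carboxylate herbicide (g ae/ha; emulsifiable concentrate with cloquintocet-mexyl safener) plus PS-II and optional HPPD herbicide (g ai/ha) in 1.25% v/v crop oil at 187 L/ha. Visual injury versus solvent-blank controls was scored 0–100% after 20-22 d.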"}, "[4]": {"tested_on": "MATCH, Matricaria chamomilla (wild chamomile)", "assay": "Greenhouse postemergence herbicidal effect (visual injury, 20-22 d)", "procedure,_shortened": "as §1"}, "[5]": {"tested_on": "BRSNN, Brassica napus (spring rape)", "assay": "Greenhouse postemergence herbicidal effect (visual injury, 20-22 d)", "procedure,_shortened": "as §1"}, "[6]": {"tested_on": "POLCO, Polygonum convolvulus (wild buckwheat)", "assay": "Greenhouse postemergence herbicidal effect (visual injury, 20-22 d)", "conditions": "POLCO, Compound A 10 g/ha"}, "[7]": {"tested_on": "LEFCH, Leptochloa chinensis (Chinese sprangletop)", "assay": "Greenhouse postemergence herbicidal effect (visual injury, 20-22 d)", "conditions": "Compound A 10 g/ha, without cloquintocet-mexyl safener"}, "[8]": {"tested_on": "SORVU, Sorghum vulgare (grain sorghum)", "assay": "Greenhouse postemergence herbicidal effect (visual injury, 20-22 d)", "procedure,_shortened": "as §1"}, "[9]": {"tested_on": "TRZAS, Triticum aestivum (spring wheat)", "assay": "Greenhouse postemergence phytotoxicity on crop (visual injury, 20-22 d)", "text": "(§2) Greenhouse Trial Methodology—Evaluation of Postemergence Herbicidal Effect\n(§3) Seeds of the desired test plant species were planted in a 90:10% v/v (volume/volume) mixture of PRO-MIX® BX (Premier Tech Horticulture, Quakertown, Pa., USA) and PROFILE®GREENS GRADE™ (Profile Products LLC, Buffalo Grove, Ill., USA) planting mixture, which typically has a pH of 5.2 to 6.2 and an organic matter content of at least 50 percent, in plastic pots with a surface area of 103.2 square centimeters (cm^2). In some aspects, to help ensure good germination and healthy plants, a fungicide treatment and/or other chemical or physical treatment was applied. The plants were grown for 7-36 days (d) in a greenhouse with an approximate 14-hour (h) photoperiod which was maintained at about 23° C. during the day and 22° C. during the night. Nutrients and water were added on a regular basis and supplemental lighting was provided with overhead metal halide 1000-Watt lamps as necessary. The plants were employed for testing when they reached the second or third true leaf stage.\n(§4) Emulsifiable concentrates of each of each pyridine carboxylate herbicide (Compound A or Compound B) were prepared at 100 grams acid equivalent per liter (g ae/L). The emulsifiable concentrates also included a safener, cloquintocet-mexyl, at 120 grams active ingredient per liter (g ai/L), unless otherwise noted below. An aliquot of each emulsifiable concentrate was placed in a 25 mL glass vial and diluted with an aqueous mixture of 1.25% (v/v) ACTIROB® B esterified rapeseed oil (Bayer Crop Science, Research Triangle Park, N.C., USA) or MSO® Concentrate with LECI-TECH® methylated soybean oil (Loveland Products, Loveland, Colo., USA) to obtain concentrated stock solutions at the highest application rate for each herbicide, based upon a 12 milliliter (mL) application volume at a rate of 187 liters per hectare (L/ha). The concentrated stock solutions were further diluted with an aqueous mixture of 1.25% v/v ACTIROB® B or MSO® Concentrate with LECI-TECH® to obtain stock solutions at reduced application rates for each herbicide. Spray solutions of the herbicide combinations (Compound A or Compound B plus PS-II herbicide and optional HPPD herbicide) were prepared by adding weighed amounts or aliquots of the PS-II herbicide and optional HPPD herbicide to the stock solutions of Compound A or Compound B to form 12-mL spray solutions in two- or three-way combinations.\n(§5) The spray solutions were applied to the plant material with an overhead Mandel track sprayer equipped with 8002E nozzles calibrated to deliver 187 L/ha over an application area of 0.503 square meters (m^2) at a spray height of 18 inches ([…] centimeters (cm)) above the average plant canopy. Control plants were sprayed in the same manner with the solvent blank. All pyridine carboxylate herbicide (component a) application rates are given as “g ae/ha” and all PS II inhibitor herbicide (component b) and HPPD inhibitor herbicide (component c) application rates are given as “g ai/ha.”\n(§6) The treated plants and control plants were placed in a greenhouse as described above and watered by sub-irrigation to prevent wash-off of the test compounds. After 20-22 d, the condition of the test plants as compared with that of the control plants was determined visually and scored on a scale of 0 to 100 percent where 0 corresponds to no injury and 100 corresponds to complete kill."}, "ZEAMX, Zea mays (maize)": {"tested_on": "ZEAMX, Zea mays (maize)", "assay": "Greenhouse postemergence phytotoxicity on crop (visual injury, 20-22 d)", "conditions": "Compound A 10 g/ha", "text": "as §2, §3, §4, §5, §6"}, "[10]": {"tested_on": "HORVS, Hordeum vulgare (spring barley)", "assay": "Greenhouse postemergence phytotoxicity on crop (visual injury, 20-22 d)", "text": "as §2, §3, §4, §5, §6"}, "[11]": {"conditions": "without cloquintocet-mexyl safener"}},
  "note": "“And” between values parts separate entries of the source, which are not always exact repeats. Identical values can stand only once.",
  "data": [
    {"compound": "N#CCOC(=O)c1nc(-c2ccc3cc[nH]c3c2F)c(F)c(N)c1Cl", "note": "[Compound A, cyanomethyl 4-amino-3-chloro-5-fluoro-6-(7-fluoro-1H-indol-6-yl)pyridine-2-carboxylate]", "values": [
      {"measurement": "% visual injury, Obs", "setting": "[1]", "value": 100, "unit": "%"},
      {"measurement": "% visual injury, Obs", "setting": "[2]", "value": 8, "unit": "%"},
      {"measurement": "% visual injury, Obs", "setting": "[2]; [11]", "value": 0, "unit": "%"},
      {"measurement": "visual injury", "setting": "[3]; 7.5 g ae/ha alone", "value": "78% and 70% and 90%"},
      {"measurement": "visual injury", "setting": "[3]; 10 g ae/ha alone", "value": "73% and 90% and 85%"},
      {"measurement": "% visual injury, Obs", "setting": "[3]; AMARE, Compound A 10 g/ha", "value": 88, "unit": "%"},
      {"measurement": "visual injury", "setting": "[4]; 7.5 g ae/ha alone", "value": "20% and 18% and 10%"},
      {"measurement": "visual injury", "setting": "[4]; 10 g ae/ha alone", "value": "30% and 20%"},
      {"measurement": "visual injury", "setting": "[5]; 10 g ae/ha alone", "value": "60% and 45% and 73%"},
      {"measurement": "% visual injury, Obs", "setting": "[5]; BRSNN, Compound A 10 g/ha", "value": 65, "unit": "%"},
      {"measurement": "% visual injury, Obs", "setting": "[6]", "value": 93, "unit": "%"},
      {"measurement": "% visual injury, Obs", "setting": "[6]; [11]", "value": 78, "unit": "%"},
      {"measurement": "% visual injury, Obs", "setting": "[7]", "value": 0, "unit": "%"},
      {"measurement": "visual injury", "setting": "[8]; 7.5 g ae/ha alone", "value": 0, "unit": "%"},
      {"measurement": "visual injury", "setting": "[8]; 10 g ae/ha alone", "value": 0, "unit": "%"},
      {"measurement": "% visual injury, Obs", "setting": "[8]; SORVU, Compound A 10 g/ha, without cloquintocet-mexyl safener", "value": 0, "unit": "%"},
      {"measurement": "visual injury", "setting": "[9]; 7.5 g ae/ha alone", "value": 0, "unit": "%"},
      {"measurement": "visual injury", "setting": "[9]; 10 g ae/ha alone", "value": 0, "unit": "%"},
      {"measurement": "% visual injury, Obs", "setting": "[9]; TRZAS, Compound A 10 g/ha", "value": 3, "unit": "%"},
      {"measurement": "% visual injury, Obs", "setting": "ZEAMX, Zea mays (maize)", "value": 0, "unit": "%"},
      {"measurement": "visual injury", "setting": "[10]; 7.5 g ae/ha alone", "value": "0% and 8%"},
      {"measurement": "visual injury", "setting": "[10]; 10 g ae/ha alone", "value": 0, "unit": "%"}
    ]}
  ]
}
